Experimental data: patent US20250312462A1, “PAK1 DEGRADERS AND METHODS OF USE THEREOF” (INSTITUTE FOR CANCER RESEARCH D/B/A THE RESEARCH INSTITUTE …, priority 2022, published 2025)

What was measured:
Experiment in all cases: KINOMEscan
MTOR = MTOR (Homo sapiens, UniProt P42345); details: read-out: Percent Control
Protocol: (§1) The kinase engagement assay (KINOMEscan®) was performed by DiscoverX assessing binding abilities toward a set of kinases.

RET(M918T) = RET(M918T) (Homo sapiens, UniProt P07949, M918T); details: read-out: Percent Control
Protocol: as §1

PRKR = PRKR (Homo sapiens, UniProt P19525); details: read-out: Percent Control
Protocol: as §1

YSK1 = YSK1 (Homo sapiens, UniProt O00506); details: read-out: Percent Control
Protocol: as §1

DAPK2 = DAPK2 (Homo sapiens, UniProt Q9UIK4); details: read-out: Percent Control
Protocol: as §1

SRPK2 = SRPK2 (Homo sapiens, UniProt P78362); details: read-out: Percent Control
Protocol: as §1

CAMK1 = CAMK1 (Homo sapiens, UniProt Q14012); details: read-out: Percent Control
Protocol: as §1

PDGFRA = PDGFRA (Homo sapiens, UniProt P16234); details: read-out: Percent Control
Protocol: as §1

EIF2AK1 = EIF2AK1 (Homo sapiens, UniProt Q9BQI3); details: read-out: Percent Control
Protocol: as §1

EGFR(L861Q) = EGFR(L861Q) (Homo sapiens, UniProt P00533, L861Q); details: read-out: Percent Control
Protocol: as §1

GRK3 = GRK3 (Homo sapiens, UniProt P35626); details: read-out: Percent Control
Protocol: as §1

PKAC-beta = PKAC-beta (Homo sapiens, UniProt P22694); details: read-out: Percent Control
Protocol: as §1

SRPK3 = SRPK3 (Homo sapiens, UniProt Q9UPE1); details: read-out: Percent Control
Protocol: as §1

IKK-alpha = IKK-alpha (Homo sapiens, UniProt O15111); details: read-out: Percent Control
Protocol: as §1

PIP5K1A = PIP5K1A (Homo sapiens, UniProt Q99755); details: read-out: Percent Control
Protocol: as §1

EPHA1 = EPHA1 (Homo sapiens, UniProt P21709); details: read-out: Percent Control
Protocol: as §1

BIKE = BIKE (Homo sapiens, UniProt Q9NSY1); details: read-out: Percent Control
Protocol: as §1

PCTK1 = PCTK1 (Homo sapiens, UniProt Q00536); details: read-out: Percent Control
Protocol: as §1

RIOK2 = RIOK2 (Homo sapiens, UniProt Q9BVS4); details: read-out: Percent Control
Protocol: as §1

YANK2 = YANK2 (Homo sapiens, UniProt Q9NY57); details: read-out: Percent Control
Protocol: as §1

PIP5K2C = PIP5K2C (Homo sapiens, UniProt Q8TBX8); details: read-out: Percent Control
Protocol: as §1

PRP4 = target: T1, PRP4 (Homo sapiens, UniProt Q13523); format: binding; details: read-out: Percent Control
T1 construct: purchased DiscoverX

EPHB3 = EPHB3 (Homo sapiens, UniProt P54753); details: read-out: Percent Control
Protocol: as §1

TSSK1B = TSSK1B (Homo sapiens, UniProt Q9BXA7); details: read-out: Percent Control
Protocol: as §1

STK39 = STK39 (Homo sapiens, UniProt Q9UEW8); details: read-out: Percent Control
Protocol: as §1

TTK = TTK (Homo sapiens, UniProt P33981); details: read-out: Percent Control
Protocol: as §1

FLT3(ITD, F691L) = details: 10 μM
Protocol: as §1

EPHA5 = EPHA5 (Homo sapiens, UniProt P54756); details: read-out: Percent Control
Protocol: as §1

[1] = target: RSK4(Kin.Dom.2-C-terminal) (Homo sapiens, UniProt Q9UK32); details: read-out: Percent Control
Protocol: as §1

TESK1 = TESK1 (Homo sapiens, UniProt Q15569); details: read-out: Percent Control
Protocol: as §1

MAP3K1 = MAP3K1 (Homo sapiens, UniProt Q13233); details: read-out: Percent Control
Protocol: as §1

PLK2 = PLK2 (Homo sapiens, UniProt Q9NYY3); details: read-out: Percent Control
Protocol: as §1

VEGFR2 = VEGFR2 (Homo sapiens, UniProt P35968); details: read-out: Percent Control
Protocol: as §1

EGFR(S752-1759del) = EGFR(S752-1759del) (Homo sapiens, UniProt P00533, DEL752-759); details: read-out: Percent Control
Protocol: as §1

MINK = MINK (Homo sapiens, UniProt Q8N4C8); details: read-out: Percent Control
Protocol: as §1

CDK9 = CDK9 (Homo sapiens, UniProt P50750); details: read-out: Percent Control
Protocol: as §1

ERK4 = ERK4 (Homo sapiens, UniProt P31152); details: read-out: Percent Control
Protocol: as §1

PRKX = PRKX (Homo sapiens, UniProt P51817); details: read-out: Percent Control
Protocol: as §1

Chain of EPHA5 (P54756 25-1037): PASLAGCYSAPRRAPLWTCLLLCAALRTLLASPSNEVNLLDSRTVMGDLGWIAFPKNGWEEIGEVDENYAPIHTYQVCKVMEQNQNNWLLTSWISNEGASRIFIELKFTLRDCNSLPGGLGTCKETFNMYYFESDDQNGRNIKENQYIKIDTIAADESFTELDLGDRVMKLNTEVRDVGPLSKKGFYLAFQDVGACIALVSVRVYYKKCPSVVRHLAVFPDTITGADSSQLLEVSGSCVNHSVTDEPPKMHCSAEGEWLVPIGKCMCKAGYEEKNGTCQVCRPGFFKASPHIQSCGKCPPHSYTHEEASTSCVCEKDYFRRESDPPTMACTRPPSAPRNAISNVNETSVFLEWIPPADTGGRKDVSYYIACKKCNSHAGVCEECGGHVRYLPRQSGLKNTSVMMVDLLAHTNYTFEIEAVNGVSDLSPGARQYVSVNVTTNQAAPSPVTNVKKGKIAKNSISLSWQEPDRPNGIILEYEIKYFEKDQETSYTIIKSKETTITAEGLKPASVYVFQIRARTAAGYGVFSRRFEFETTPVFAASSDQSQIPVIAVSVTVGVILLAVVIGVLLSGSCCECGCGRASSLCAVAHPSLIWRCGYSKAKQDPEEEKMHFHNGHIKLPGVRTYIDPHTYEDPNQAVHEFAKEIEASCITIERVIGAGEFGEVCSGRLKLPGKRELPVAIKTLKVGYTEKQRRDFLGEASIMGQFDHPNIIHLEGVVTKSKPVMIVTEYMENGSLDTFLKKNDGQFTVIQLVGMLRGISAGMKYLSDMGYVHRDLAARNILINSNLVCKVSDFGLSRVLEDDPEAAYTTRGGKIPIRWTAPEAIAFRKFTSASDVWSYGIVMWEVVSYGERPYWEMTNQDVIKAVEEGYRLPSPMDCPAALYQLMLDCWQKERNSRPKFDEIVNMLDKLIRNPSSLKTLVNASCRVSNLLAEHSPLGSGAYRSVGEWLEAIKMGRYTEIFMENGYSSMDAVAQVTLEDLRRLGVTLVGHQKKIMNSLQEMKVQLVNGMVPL
Chain of PCTK1 (Q00536 whole entry): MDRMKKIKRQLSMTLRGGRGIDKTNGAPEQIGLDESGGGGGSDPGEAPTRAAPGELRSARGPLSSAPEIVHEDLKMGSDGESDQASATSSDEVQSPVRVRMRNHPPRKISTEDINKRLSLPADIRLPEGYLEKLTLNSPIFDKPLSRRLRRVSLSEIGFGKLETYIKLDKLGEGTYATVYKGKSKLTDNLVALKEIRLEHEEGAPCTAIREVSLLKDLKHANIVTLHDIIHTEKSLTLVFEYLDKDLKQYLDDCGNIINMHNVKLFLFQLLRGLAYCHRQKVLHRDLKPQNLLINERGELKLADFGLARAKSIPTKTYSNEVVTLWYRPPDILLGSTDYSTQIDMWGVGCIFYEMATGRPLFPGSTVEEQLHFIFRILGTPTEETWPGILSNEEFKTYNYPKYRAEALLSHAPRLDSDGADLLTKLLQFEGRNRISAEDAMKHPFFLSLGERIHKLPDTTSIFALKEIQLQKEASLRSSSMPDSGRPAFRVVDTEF
Chain of EPHA1 (P21709 26-976): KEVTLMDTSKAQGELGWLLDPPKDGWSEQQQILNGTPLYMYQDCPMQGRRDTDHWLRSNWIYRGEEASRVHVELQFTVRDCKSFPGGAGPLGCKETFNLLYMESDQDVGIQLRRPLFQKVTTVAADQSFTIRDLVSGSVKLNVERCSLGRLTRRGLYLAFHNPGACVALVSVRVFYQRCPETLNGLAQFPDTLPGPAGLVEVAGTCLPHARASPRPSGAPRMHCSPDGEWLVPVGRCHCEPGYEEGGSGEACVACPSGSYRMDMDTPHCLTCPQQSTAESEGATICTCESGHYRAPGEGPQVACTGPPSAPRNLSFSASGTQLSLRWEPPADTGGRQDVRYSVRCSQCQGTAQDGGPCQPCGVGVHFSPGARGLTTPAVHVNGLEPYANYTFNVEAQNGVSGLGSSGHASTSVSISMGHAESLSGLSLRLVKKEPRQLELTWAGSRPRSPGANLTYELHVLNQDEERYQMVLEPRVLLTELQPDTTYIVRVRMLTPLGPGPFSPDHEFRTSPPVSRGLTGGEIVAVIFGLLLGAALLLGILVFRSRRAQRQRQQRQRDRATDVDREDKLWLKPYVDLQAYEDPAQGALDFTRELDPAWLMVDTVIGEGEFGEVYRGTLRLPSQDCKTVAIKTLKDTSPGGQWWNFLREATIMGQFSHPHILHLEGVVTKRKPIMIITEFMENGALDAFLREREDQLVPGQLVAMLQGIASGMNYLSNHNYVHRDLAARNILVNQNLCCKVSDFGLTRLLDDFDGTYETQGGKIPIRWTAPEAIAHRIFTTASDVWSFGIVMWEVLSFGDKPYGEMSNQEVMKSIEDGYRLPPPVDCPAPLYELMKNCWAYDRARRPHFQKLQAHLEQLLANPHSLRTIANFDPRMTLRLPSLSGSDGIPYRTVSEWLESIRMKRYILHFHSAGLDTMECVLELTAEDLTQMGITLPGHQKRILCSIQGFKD
Chain of DAPK2 (Q9UIK4 whole entry): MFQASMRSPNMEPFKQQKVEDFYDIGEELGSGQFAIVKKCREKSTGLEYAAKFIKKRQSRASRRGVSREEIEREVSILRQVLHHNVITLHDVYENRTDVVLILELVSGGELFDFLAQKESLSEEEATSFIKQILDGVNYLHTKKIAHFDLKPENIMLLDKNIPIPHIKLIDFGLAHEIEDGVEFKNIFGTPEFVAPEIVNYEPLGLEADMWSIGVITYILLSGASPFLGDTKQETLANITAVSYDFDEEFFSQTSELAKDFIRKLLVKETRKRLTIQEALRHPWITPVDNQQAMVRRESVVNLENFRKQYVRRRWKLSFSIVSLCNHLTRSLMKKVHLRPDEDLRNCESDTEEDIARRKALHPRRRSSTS
Chain of TESK1 (Q15569 whole entry): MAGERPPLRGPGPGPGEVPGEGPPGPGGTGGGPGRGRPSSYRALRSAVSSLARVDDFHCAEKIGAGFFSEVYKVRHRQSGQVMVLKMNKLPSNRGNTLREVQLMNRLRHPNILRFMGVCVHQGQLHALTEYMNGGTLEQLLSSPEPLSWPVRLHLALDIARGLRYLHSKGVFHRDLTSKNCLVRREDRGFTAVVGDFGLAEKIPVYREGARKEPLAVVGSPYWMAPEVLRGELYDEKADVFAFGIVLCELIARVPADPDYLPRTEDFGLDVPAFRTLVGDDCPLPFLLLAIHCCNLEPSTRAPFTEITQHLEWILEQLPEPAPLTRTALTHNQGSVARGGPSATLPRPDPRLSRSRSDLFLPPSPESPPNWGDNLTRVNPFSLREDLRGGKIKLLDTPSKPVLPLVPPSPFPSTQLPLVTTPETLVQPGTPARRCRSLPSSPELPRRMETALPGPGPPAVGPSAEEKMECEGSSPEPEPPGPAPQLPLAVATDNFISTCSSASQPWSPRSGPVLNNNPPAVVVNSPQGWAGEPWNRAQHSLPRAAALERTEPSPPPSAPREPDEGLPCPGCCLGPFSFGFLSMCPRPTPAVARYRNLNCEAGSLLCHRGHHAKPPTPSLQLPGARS
Chain of PDGFRA (P16234 24-1089): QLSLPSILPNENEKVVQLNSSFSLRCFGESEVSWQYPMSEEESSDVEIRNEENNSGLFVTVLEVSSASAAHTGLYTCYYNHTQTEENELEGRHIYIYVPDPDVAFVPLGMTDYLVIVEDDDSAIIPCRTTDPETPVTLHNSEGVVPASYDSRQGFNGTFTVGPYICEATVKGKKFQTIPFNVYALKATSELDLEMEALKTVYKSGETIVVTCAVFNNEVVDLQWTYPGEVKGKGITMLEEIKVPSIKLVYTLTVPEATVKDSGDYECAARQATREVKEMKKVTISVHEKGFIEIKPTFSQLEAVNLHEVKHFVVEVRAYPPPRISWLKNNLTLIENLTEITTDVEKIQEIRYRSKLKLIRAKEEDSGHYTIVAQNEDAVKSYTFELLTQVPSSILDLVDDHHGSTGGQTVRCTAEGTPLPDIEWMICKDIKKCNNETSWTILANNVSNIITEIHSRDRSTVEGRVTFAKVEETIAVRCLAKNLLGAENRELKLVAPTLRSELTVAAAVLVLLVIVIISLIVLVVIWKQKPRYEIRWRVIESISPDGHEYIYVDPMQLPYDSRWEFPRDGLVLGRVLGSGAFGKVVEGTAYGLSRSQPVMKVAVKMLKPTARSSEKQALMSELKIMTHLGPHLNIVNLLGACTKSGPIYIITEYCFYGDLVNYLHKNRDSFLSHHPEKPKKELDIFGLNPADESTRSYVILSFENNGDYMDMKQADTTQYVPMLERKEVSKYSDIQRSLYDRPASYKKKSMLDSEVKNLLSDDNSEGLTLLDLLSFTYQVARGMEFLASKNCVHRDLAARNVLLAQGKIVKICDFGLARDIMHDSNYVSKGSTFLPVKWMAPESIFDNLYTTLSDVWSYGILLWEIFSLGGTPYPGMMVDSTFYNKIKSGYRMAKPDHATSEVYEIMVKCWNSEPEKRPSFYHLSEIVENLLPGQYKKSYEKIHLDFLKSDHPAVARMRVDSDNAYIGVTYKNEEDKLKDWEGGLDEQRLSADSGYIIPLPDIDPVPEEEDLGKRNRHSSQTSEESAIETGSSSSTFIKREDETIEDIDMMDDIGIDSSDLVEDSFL
Chain of CDK9 (P50750 whole entry): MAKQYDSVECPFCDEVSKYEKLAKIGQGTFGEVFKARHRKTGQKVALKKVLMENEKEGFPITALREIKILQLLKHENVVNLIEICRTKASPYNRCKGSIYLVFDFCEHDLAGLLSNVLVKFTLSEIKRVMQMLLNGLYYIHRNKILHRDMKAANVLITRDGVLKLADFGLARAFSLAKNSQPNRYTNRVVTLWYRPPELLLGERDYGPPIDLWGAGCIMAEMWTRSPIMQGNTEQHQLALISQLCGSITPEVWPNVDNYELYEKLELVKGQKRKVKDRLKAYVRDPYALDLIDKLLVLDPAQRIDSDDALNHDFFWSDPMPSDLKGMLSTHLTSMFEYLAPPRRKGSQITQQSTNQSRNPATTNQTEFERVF

O=C1CCC(N2C(=O)c3cccc(NCCCCCCCCNC(=O)N4CC[C@H](NC5=Nc6cc(F)ccc6N(CC(F)F)c6ccc(Cl)cc65)C4)c3C2=O)C(=O)N1 (stereo partly drawn) [BJG-05-039, (3S)-3-((2-Chloro-5-(2,2-difluoroethyl)-8-fluoro-5H-dibenzo[b,e][1,4]diazepin-11-yl)amino)-N-(8-((2-(2,6-dioxopiperidin-3-yl)-1,3-dioxoisoindolin-4-yl)amino)octyl)pyrrolidine-1-carboxamide]
remaining binding at 10 µM (MTOR): 74% | remaining binding at 10 µM (RET(M918T)): 90% | remaining binding at 10 µM (PRKR): 81% | remaining binding at 10 µM (YSK1): 83% | remaining binding at 10 µM (DAPK2): 41% | remaining binding at 10 µM (SRPK2): 91% | remaining binding at 10 µM (CAMK1): 52% | remaining binding at 10 µM (PDGFRA): 100% | remaining binding at 10 µM (EIF2AK1): 98% | remaining binding at 10 µM (EGFR(L861Q)): 88% | remaining binding at 10 µM (GRK3): 92% | remaining binding at 10 µM (PKAC-beta): 62% | remaining binding at 10 µM (SRPK3): 93% | remaining binding at 10 µM (IKK-alpha): 91% | remaining binding at 10 µM (PIP5K1A): 95% | remaining binding at 10 µM (EPHA1): 98% | remaining binding at 10 µM (BIKE): 74% | remaining binding at 10 µM (PCTK1): 97% | remaining binding at 10 µM (RIOK2): 99% | remaining binding at 10 µM (YANK2): 99% | remaining binding at 10 µM (PIP5K2C): 100% | remaining binding at 10 µM (PRP4): 97% | remaining binding at 10 µM (EPHB3): 89% | remaining binding at 10 µM (TSSK1B): 73% | remaining binding at 10 µM (STK39): 70% | remaining binding at 10 µM (TTK): 55% | Percent Control (FLT3(ITD, F691L)): 94 | remaining binding at 10 µM (EPHA5): 99% | remaining binding at 10 µM [1]: 45% | remaining binding at 10 µM (TESK1): 92% | remaining binding at 10 µM (MAP3K1): 100% | remaining binding at 10 µM (PLK2): 100% | remaining binding at 10 µM (VEGFR2): 100% | remaining binding at 10 µM (EGFR(S752-1759del)): 67% | remaining binding at 10 µM (MINK): 100% | remaining binding at 10 µM (CDK9): 53% | remaining binding at 10 µM (ERK4): 52% | remaining binding at 10 µM (PRKX): 48%
